Values quoted from earlier work as cited in patent US20240100069A1, “Methods and Compositions for Treating Amyotrophic Lateral Sclerosis” (Amylyx Pharmaceuticals, Inc., priority 2022, published 2024).

Key:
[1] = in vivo
[2] = molecular target: CYP 2D6 (Homo sapiens, UniProt P10635); details: at 20 times the intended clinical concentration (Cmax)
[3] = molecular target: T1, CYP 1A2 (Homo sapiens, UniProt P05177); details: at 20 times the intended clinical concentration (Cmax)
T1 sequence (P05177 1-516): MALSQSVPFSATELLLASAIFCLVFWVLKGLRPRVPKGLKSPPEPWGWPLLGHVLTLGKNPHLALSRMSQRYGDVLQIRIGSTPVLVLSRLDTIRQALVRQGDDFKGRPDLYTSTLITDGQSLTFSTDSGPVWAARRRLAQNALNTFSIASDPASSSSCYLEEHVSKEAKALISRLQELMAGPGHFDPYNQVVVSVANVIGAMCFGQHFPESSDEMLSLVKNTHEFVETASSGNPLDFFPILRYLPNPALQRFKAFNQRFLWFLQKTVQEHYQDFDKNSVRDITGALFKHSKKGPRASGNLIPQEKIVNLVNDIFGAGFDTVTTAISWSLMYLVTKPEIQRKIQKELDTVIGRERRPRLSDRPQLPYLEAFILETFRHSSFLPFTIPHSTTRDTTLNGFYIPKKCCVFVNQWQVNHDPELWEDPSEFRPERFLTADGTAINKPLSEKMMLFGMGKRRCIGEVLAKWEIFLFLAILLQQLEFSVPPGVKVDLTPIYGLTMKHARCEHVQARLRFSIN

[4] = tested on: G393A SODI mouse model of ALS

Chain of CYP 2D6 (P10635 whole entry): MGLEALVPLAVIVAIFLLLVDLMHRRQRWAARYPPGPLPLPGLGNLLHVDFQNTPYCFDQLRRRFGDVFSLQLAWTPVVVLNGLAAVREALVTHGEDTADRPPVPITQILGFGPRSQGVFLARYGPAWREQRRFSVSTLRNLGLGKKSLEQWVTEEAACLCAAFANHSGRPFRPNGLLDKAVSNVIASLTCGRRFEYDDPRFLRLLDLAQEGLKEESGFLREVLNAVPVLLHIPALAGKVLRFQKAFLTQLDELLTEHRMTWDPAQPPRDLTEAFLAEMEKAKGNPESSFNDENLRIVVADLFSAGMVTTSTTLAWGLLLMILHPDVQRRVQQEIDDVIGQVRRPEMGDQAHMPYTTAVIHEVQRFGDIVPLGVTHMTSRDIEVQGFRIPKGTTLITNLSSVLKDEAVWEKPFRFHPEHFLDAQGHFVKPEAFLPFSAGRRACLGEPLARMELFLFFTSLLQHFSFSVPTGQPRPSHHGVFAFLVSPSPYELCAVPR

C[C@H](CCC(=O)NCCS(=O)(=O)O)[C@H]1CC[C@H]2[C@@H]3[C@@H](O)C[C@@H]4C[C@H](O)CC[C@]4(C)[C@H]3CC[C@]12C [TURSO, tauroursodeoxycholic acid]
most common adverse reactions reported (abdominal discomfort, abdominal pain, diarrhea, nausea, pruritus, rash), frequency [1]: ≥ 1%

Phenylacetylacetate
inhibition of CYP 2D6 [2]: inhibitory
inhibition of CYP 1A2 [3]: inhibitory

O=C(O)CCCc1ccccc1 [Phenylbutyrate, sodium phenylbutyrate]
survival in in vivo models [4]: increase survival
